Source: patent US20260191853A1, “METHOD OF TREATING DRUG-INDUCED BRADYARRHYTHMIA” (OSAKA UNIVERSITY, priority 2022, published 2026)
“Also recorded” adds a separate entry of the source.

Key:
Type in all cases: in vivo
[1] = tested on: Hartley guinea pigs; assay: Preventive effect on siponimod-induced bradyarrhythmia in isoflurane-anesthetized guinea pig model
Procedure: A solvent or compound (I) (free form) was administered by oral gavage at a dose of 0.3. 1, or 3 mg/kg (volume: 5 mL/kg) to Hartley guinea pigs (7 to 10 weeks old, male, available from Japan SLC, Inc.). After completion of the administration, each animal was subjected to anesthetic induction by inhalation of isoflurane (available from Pfizer Japan Inc.), and the animal was held on an operating table having a heater function. The trachea was incised, and a tracheal cannula (KN-375, available from Natsume Seisakusho Co., Ltd.) was inserted. The tracheal cannula was connected to a ventilator (SN-480-7, available from Shinano Seisakusho Co., Ltd.), and artificial respiration was controlled by supplying 100% oxygen at a volume of 10 mL and a ventilation rate of 60 times/minute. The solvent used was 0.5 w/v % methyl cellulose 400 solution (available from FUJIFILM Wako Pure Chemical Corporation). Isoflurane (available from Pfizer Japan Inc.) anesthesia (about 1 to 4%, carrier gas: 100% oxygen) was used for maintenance of anesthesia. A catheter (BD intramedic polyethylene tubing PE50, available from Becton, Dickinson and Company) charged with 50 units/mL heparin (available from AY PHARMACEUTICALS CO., LTD.) was inserted into each of the carotid artery and the jugular vein and placed in the blood vessel. Systemic blood pressure was measured with a high-sensitivity DC amplifier (AD-611J, available from NIHON KOHDEN CORPORATION) via the catheter placed in the carotid artery. Electrodes were attached to the body surface, and a body surface electrocardiogram was measured with a high-sensitivity amplifier (AB-611J, available from NIHON KOHDEN CORPORATION). Blood pressure and electrocardiogram data were acquired and analyzed with PowerLab/Labchart system (available from ADInstruments). Analysis items are systolic blood pressure, diastolic blood pressure, average blood pressure, heart rate, P-wave width, PR interval, QRS width, QT interval, and corrected QT interval. Corrected QT interval was calculated using the Fridericia formula (QTc=QT interval/RR interval^1/3). After stabilization of each parameter, siponimod (synthesized according to WO 2017/120124) was continuously administered intravenously at 0.01 mg/kg for 10 minutes via the catheter placed in the jugular vein, followed by observation of the presence or absence of the onset of bradyarrhythmia for 60 minutes. The solvent used was a solution prepared by mixing of Polyethylene Glycol 400 (available from KANTO CHEMICAL CO., INC.) and dimethyl sulfoxide (available from FUJIFILM Wako Pure Chemical Corporation) at 9: 1 (volume ratio). Data were recorded and blood was collected 5, 10, 15, 20, 30, and 60 minutes after initiation of administration of siponimod. The observation was terminated 60 minutes after initiation of the administration, and the animal was euthanized by exsanguination or intravenous administration of a large amount of saturated potassium chloride solution under isoflurane anesthesia. Data were analyzed for atrial beating rate over time, ventricular beating rate over time, electrocardiographic parameters, the presence or absence of the onset of atrioventricular block, and plasma concentrations of compound (I) and siponimod. The plasma was collected by centrifuging the blood and cryopreserved at about −20° C. After thawing of the plasma, plasma drug concentrations were measured using LC/MS/MS after deproteinization with acetonitrile.
In FIG. 3, the measurements are shown as mean±standard error. Abbreviations, etc. are as follows. • (I): compound (I) • Atrioventricular block: the presence or absence of atrioventricular block • (x denotes second- or third-degree atrioventricular block) • PR & QRS: atrioventricular conduction time and ventricular activation time • QT & QTcF: ventricular repolarization time and heart rate-corrected ventricular repolarization time • Plasma concentration: the plasma concentration of siponimod or compound (I)

[2] = tested on: beagle dog; assay: Therapeutic effect on propranolol-induced bradycardia in conscious beagle dog; conditions: compound (I) dihydrochloride 0.01, 0.1, 1 mg/kg bolus i.v., FIG. 9
Procedure: A peripheral venous path was secured with an 18 G needle in the right forelimb of a beagle dog (body weight: about 10 kg, female, available from Oriental Yeast Co., Ltd.), and then held on an operating table. Heart rate was monitored with an electrocardiographic monitor worn on the animal. A manchette was worn on the left forelimb, and blood pressure was measured with an Omron automatic electronic sphygmomanometer. The left ventricular function was measured by the M-mode method using the echocardiographic left parasternal short-axis two-chamber view. After stabilization of the heart rate, propranolol (Inderal Injection, available from AstraZeneca K.K.) was administered by bolus intravenous injection at a dose of 2 mg/kg, followed by continuous intravenous injection at a dose of 1 mg/minute with a syringe pump. After the elapse of about 30 minutes, the stabilization of the heart rate was determined, and then saline and compound (I) dihydrochloride (0.01 mg/kg, 0.1 mg/kg, 1 mg/kg) were administered by bolus intravenous injection at 10-minute intervals. About 10 minutes after each administration, heart rate, blood pressure, and left ventricular function were measured and evaluated in a stable state. The solvent used was saline (available from Otsuka Pharmaceutical Factory, Inc.).

[3] = tested on: genetically modified animal model; assay: Sinus arrest and atrioventricular block in a genetically modified animal model

Cc1cc(CO)nc2cc3c(cc12)OC(C)(C)[C@H](O)[C@H]3NCCc1ccccc1 [Compound (I), (3R,4S)-7-Hydroxymethyl-2,2,9-trimethyl-4-(phenethylamino)-3,4-dihydro-2H-pyrano[2,3-g]quinoline-3-ol]
cases in which siponimod-induced atrioventricular block was not observed ([1]; 0.3 mg/kg oral gavage, four cases per group): 50% | cases in which siponimod-induced atrioventricular block was not observed ([1]; 1 mg/kg oral gavage, four cases per group): 75% | cases in which siponimod-induced atrioventricular block was suppressed ([1]; 3 mg/kg oral gavage, four cases per group): 100% | siponimod-induced bradycardia (ventricular beating rate / heart rate) ([1]; 3 mg/kg oral gavage, siponimod 0.01 mg/kg i.v.): completely restored; also recorded: completely prevented | onset of siponimod-induced bradyarrhythmia (atrioventricular block) ([1]; 0.3, 1, 3 mg/kg oral gavage, FIG. 3 and FIG. 4): prevented the onset of siponimod-induced bradyarrhythmia (atrioventricular block) in a dose-dependent manner | siponimod-induced bradycardia (ventricular beating rate / heart rate) ([1]; compound (I) 0.3, 1, 3 mg/kg oral gavage before siponimod 0.01 mg/kg i.v. over 10 min, FIG. 3): improved in a dose-dependent manner; also recorded: prevented a reduction in heart rate | siponimod-induced prolongation of QT time ([1]; compound (I) oral gavage 0.3-3 mg/kg): almost completely suppressed | effect on cardiac contraction inhibitory action of propranolol (left ventricular ejection fraction) [2]: did not affect | propranolol-induced bradycardia (heart rate) ([2]; propranolol 2 mg/kg bolus then 1 mg/minute i.v.): improved bradycardia | efficacy for sinus arrest and atrioventricular block [3]: effective
